According to the supplement of paper PMC10627819:

Tests used:
Assay in all cases: Bliss interaction score (quartile over a dose matrix) (fitness difference); higher = more antagonism (negative = synergy)
B. subtilis 168 = test system: B. subtilis 168
Outline: (§1)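 Fitness was OD595 at entry into stationary phase divided by the plate's robust no-drug mean and capped at 1; single-drug fitness was inferred from combination data. The Bliss score is observed minus expected (product) fitness, summarised by quartiles over technical, biological and donor/recipient replicates.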

S. aureus DSM 20231 = test system: S. aureus DSM 20231
Outline: as §1

S. aureus Newman = test system: S. aureus Newman
Outline: as §1

S. pneumoniae D39V = test system: S. pneumoniae D39V
Outline: as §1
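Also: first quartile when negative (synergy) and third quartile when positive (antagonism).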

SMILES	Bliss interaction score (B. subtilis 168)	Bliss interaction score (S. aureus DSM 20231)	Bliss interaction score (S. aureus Newman)	Bliss interaction score (S. pneumoniae D39V)	Bliss interaction score (B. subtilis 168; main component drawn)	Bliss interaction score (S. aureus DSM 20231; main component drawn)	Bliss interaction score (S. aureus Newman; main component drawn)	Bliss interaction score (S. pneumoniae D39V; main component drawn)
CC[C@H]1OC(=O)[C@H](C)[C@@H](O[C@H]2C[C@@](C)(OC)[C@@H](O)[C@H](C)O2)[C@H](C)[C@@H](O[C@@H]2O[C@H](C)C[C@H](N(C)C)[C@H]2O)[C@](C)(OC)C[C@@H](C)C(=O)[C@H](C)[C@@H](O)[C@]1(C)O [Clarithromycin] + Oc1cc(Cl)ccc1Oc1ccc(Cl)cc1Cl [Triclosan]	0.0259	-0.0868	0.032	0.0396				
CCC[C@@H]1C[C@@H](C(=O)N[C@@H]([C@H]2O[C@H](SC)[C@H](O)[C@@H](O)[C@H]2O)[C@H](C)Cl)N(C)C1 [Clindamycin] + CC1(C)S[C@@H]2[C@H](NC(=O)Cc3ccccc3)C(=O)N2[C@H]1C(=O)O [PenicillinG]	0.0383	0.0609	-0.0587	0.0611				
CCC[C@@H]1C[C@@H](C(=O)N[C@@H]([C@H]2O[C@H](SC)[C@H](O)[C@@H](O)[C@H]2O)[C@H](C)Cl)N(C)C1 [Clindamycin] + CC(=O)O[C@H]1C[C@@]2(C)[C@@H](C[C@@H](O)[C@H]3[C@@]4(C)CC[C@@H](O)[C@@H](C)[C@@H]4CC[C@@]32C)/C1=C(\CCC=C(C)C)C(=O)O [Fusidic acid]	0.0418	0.0254	0.0307	0.0662				
CCC[C@@H]1C[C@@H](C(=O)N[C@@H]([C@H]2O[C@H](SC)[C@H](O)[C@@H](O)[C@H]2O)[C@H](C)Cl)N(C)C1 [Clindamycin] + CC[C@H]1OC(=O)[C@H](C)C(=O)[C@H](C)[C@@H](O[C@@H]2O[C@H](C)C[C@H](N(C)C)[C@H]2O)[C@](C)(OC)C[C@@H](C)C(=O)[C@H](C)[C@H]2N(CCCCn3cnc(-c4cccnc4)c3)C(=O)O[C@]12C [Telithromycin]	0.0609	0.0256	-0.0812	0.106				
CCC[C@@H]1C[C@@H](C(=O)N[C@@H]([C@H]2O[C@H](SC)[C@H](O)[C@@H](O)[C@H]2O)[C@H](C)Cl)N(C)C1 [Clindamycin] + CC[C@H]1OC(=O)[C@H](C)[C@@H](O[C@H]2C[C@@](C)(OC)[C@@H](O)[C@H](C)O2)[C@H](C)[C@@H](O[C@@H]2O[C@H](C)C[C@H](N(C)C)[C@H]2O)[C@](C)(O)C[C@@H](C)C(=O)[C@H](C)[C@@H](O)[C@]1(C)O [Erythromycin]	0.0748	-0.0244	-0.0542	0.123				
CCC[C@@H]1C[C@@H](C(=O)N[C@@H]([C@H]2O[C@H](SC)[C@H](O)[C@@H](O)[C@H]2O)[C@H](C)Cl)N(C)C1 [Clindamycin] + CN(C)[C@@H]1C(O)=C(C(N)=O)C(=O)[C@@]2(O)C(O)=C3C(=O)c4c(O)ccc(Cl)c4[C@@](C)(O)[C@H]3C[C@@H]12 [Clortetracycline]	-0.212	-0.0617	-0.191	-0.0954				
CCC[C@@H]1C[C@@H](C(=O)N[C@@H]([C@H]2O[C@H](SC)[C@H](O)[C@@H](O)[C@H]2O)[C@H](C)Cl)N(C)C1 [Clindamycin] + CN[C@H](CC(C)C)C(=O)N[C@H]1C(=O)N[C@@H](CC(N)=O)C(=O)N[C@H]2C(=O)N[C@H]3C(=O)N[C@H](C(=O)N[C@H](C(=O)O)c4cc(O)cc(O)c4-c4cc3ccc4O)[C@H](O[C@H]3C[C@](C)(N)[C@@H](O)[C@H](C)O3)c3ccc(c(Cl)c3)Oc3cc2cc(c3O[C@@H]2O[C@H](CO)[C@@H](O)[C@H](O)[C@H]2O[C@H]2C[C@](C)(NCc3ccc(-c4ccc(Cl)cc4)cc3)[C@@H](O)[C@H](C)O2)Oc2ccc(cc2Cl)[C@H]1O [Oritavancin]	0.0359	0.0257	0.0703	0.0382				
CCC[C@@H]1C[C@@H](C(=O)N[C@@H]([C@H]2O[C@H](SC)[C@H](O)[C@@H](O)[C@H]2O)[C@H](C)Cl)N(C)C1 [Clindamycin] + CO[C@@]12[C@H](COC(N)=O)C3=C(C(=O)C(C)=C(N)C3=O)N1C[C@@H]1N[C@@H]12 [MitomycinC]	0.0747	-0.0349	0.0745	0.0747				
CCC[C@@H]1C[C@@H](C(=O)N[C@@H]([C@H]2O[C@H](SC)[C@H](O)[C@@H](O)[C@H]2O)[C@H](C)Cl)N(C)C1 [Clindamycin] + N[C@@H]1CONC1=O [CycloserineD]	0.0351	-0.101	0.0633	0.165				
CCC[C@@H]1C[C@@H](C(=O)N[C@@H]([C@H]2O[C@H](SC)[C@H](O)[C@@H](O)[C@H]2O)[C@H](C)Cl)N(C)C1 [Clindamycin] + Oc1cc(Cl)ccc1Oc1ccc(Cl)cc1Cl [Triclosan]	0.065	-0.0305	0.0225	-0.101				
N[C@@H]1CONC1=O [CycloserineD] + C/C(=C\C(=O)OCCCCCCCCC(=O)O)C[C@@H]1OC[C@H](C[C@@H]2O[C@H]2[C@@H](C)[C@H](C)O)[C@@H](O)[C@H]1O [Pseudomonic acid]	-0.0491	0.009	-0.0141	0.136				
N[C@@H]1CONC1=O [CycloserineD] + CC1(C)S[C@@H]2[C@H](NC(=O)Cc3ccccc3)C(=O)N2[C@H]1C(=O)O [PenicillinG]	0.116	-0.0754	0.0553	-0.221				
N[C@@H]1CONC1=O [CycloserineD] + CC1=C\[C@@H](O)CC(=O)Cc2nc(co2)C(=O)N2CCC=C2C(=O)O[C@H](C(C)C)[C@H](C)/C=C/C(=O)NC\C=C\1 [Virginiamycin M1]	-0.0364	0.101	0.0587	-0.0528				
N[C@@H]1CONC1=O [CycloserineD] + CC(=O)NC[C@H]1CN(c2ccc(N3CCOCC3)c(F)c2)C(=O)O1 [Linezolid]	-0.0639	-0.125	0.06	0.146				
N[C@@H]1CONC1=O [CycloserineD] + CC(=O)O[C@H]1C[C@@]2(C)[C@@H](C[C@@H](O)[C@H]3[C@@]4(C)CC[C@@H](O)[C@@H](C)[C@@H]4CC[C@@]32C)/C1=C(\CCC=C(C)C)C(=O)O [Fusidic acid]	0.0616	0.0576	-0.0418	0.211				
N[C@@H]1CONC1=O [CycloserineD] + CC(C1CCC(C(O1)OC2C(CC(C(C2O)OC3C(C(C(CO3)(C)O)NC)O)N)N)N)NC [Gentamicin]					-0.0482	-0.125	0.0356	-0.0744
N[C@@H]1CONC1=O [CycloserineD] + CCC(C)C1C(=O)NC(=C)C(=O)NC(C(=O)NC(CSCC(C(=O)N1)NC(=O)/C(=C/C)/NC(=O)C(C(C)CC)N)C(=O)NC2C(SCC(NC(=O)CNC(=O)C3CCCN3C2=O)C(=O)NC(CCCCN)C(=O)NC4C(SCC(NC(=O)CNC(=O)C(NC(=O)C(NC(=O)C(NC(=O)CNC4=O)C)CC(C)C)CCSC)C(=O)NC(CC(=O)N)C(=O)NC(CCSC)C(=O)NC(CCCCN)C(=O)NC5C(SCC6C(=O)NC(C(=O)NC(CSC(C(C(=O)N6)NC(=O)C(NC5=O)C)C)C(=O)NC(CO)C(=O)NC(C(C)CC)C(=O)NC(CC7=CN=CN7)C(=O)NC(C(C)C)C(=O)NC(=C)C(=O)NC(CCCCN)C(=O)O)CC8=CN=CN8)C)C)C)CC(C)C [Nisin]					0.0525	0.193	0.0401	0.0554
N[C@@H]1CONC1=O [CycloserineD] + CCCCCCCCCC(=O)N[C@@H]1[C@H]([C@@H]([C@H](O[C@H]1OC2=C3C=C4C=C2OC5=C(C=C(C=C5)[C@H]([C@H]6C(=O)N[C@@H](C7=C(C(=CC(=C7)O)OC8[C@H]([C@H]([C@@H]([C@H](O8)CO)O)O)O)C9=C(C=CC(=C9)[C@H](C(=O)N6)NC(=O)[C@@H]4NC(=O)[C@@H]1C2=CC(=CC(=C2)OC2=C(C=CC(=C2)[C@H](C(=O)N[C@H](CC2=CC(=C(O3)C=C2)Cl)C(=O)N1)N)O)O)O)C(=O)O)O[C@H]1[C@@H]([C@H]([C@@H]([C@H](O1)CO)O)O)NC(=O)C)Cl)CO)O)O [Teicoplanin]					0.0976	0.0399	0.054	-0.0849
N[C@@H]1CONC1=O [CycloserineD] + CCC[C@@H]1C[C@@H](C(=O)N[C@@H]([C@H]2O[C@H](SC)[C@H](O)[C@@H](O)[C@H]2O)[C@@H](C)O)N(C)C1 [Lincomycin]	-0.0375	-0.146	0.102	0.153				
N[C@@H]1CONC1=O [CycloserineD] + CCN(CC)CCOC(=O)c1ccc(N)cc1 [Procaine]	-0.0484	0.0639	0.0381	-0.0723				
N[C@@H]1CONC1=O [CycloserineD] + CC[C@H]1OC(=O)[C@H](C)C(=O)[C@H](C)[C@@H](O[C@@H]2O[C@H](C)C[C@H](N(C)C)[C@H]2O)[C@](C)(OC)C[C@@H](C)C(=O)[C@H](C)[C@H]2N(CCCCn3cnc(-c4cccnc4)c3)C(=O)O[C@]12C [Telithromycin]	0.0974	0.116	0.0514	0.0906				
